Data on one sequence can be found in article PMC2816717, “Active Fragments from Pro- and Antiapoptotic BCL-2 Proteins Have Distinct Membrane Behavior Reflecting Their Functional Divergence” (PLoS ONE, 2010).

Data set [1] can be described thus: Langmuir monolayer penetration assay at constant area. As to conditions: POPC/DOPE/CL. Type of data set: physicochemical. An excerpt:
(§1) For the biophysical characterization of membrane active protein fragments, we have used Langmuir monolayers as in vitro model of lipid membranes. These supramolecular lipid films formed at the air-water interface are attractive membrane models, widely used for studying peptide-lipid interactions, [56], [57]. We have investigated the binding of peptides derived from the central helices of BAX, BCL-xL and BID at physiological pH with model phospholipid monolayers of a composition that imitates mitochondrial membranes. For this purpose we selected fragments encompassing the sequences corresponding to the first or second α-helices of the core hairpins of BAX, BCL-xL and BID, as defined in the water-soluble protein structures, [17], [19]. Because the structures of those proteins in a membrane environment is currently unavailable, for the case of the first hairpin helix of BAX and BCL-xL (α5) we analyzed both a short version (labeled “S”), including only the reported α-helical residues, and a long version (labeled “L”) that extends a few residues beyond the α-helix stretch at both ends. Divergence of the BID sequence precluded unambiguous alignment with the other two proteins and a similar peptide design. Peptides corresponding to the BH3 domain of BAX, BCL-xL and BID were also included in the study. The sequence and some general properties of the peptides analyzed in this study are described in Table 1 and Figure 1). Lipid mixtures of POPC/DOPE (2∶1) and POPC/DOPE/CL (1∶1∶1) were chosen to mimic the MOM and the contact sites between inner and outer mitochondrial membrane (MIM/MOM), respectively. Penetration assays were carried out at constant area by spreading the lipids at the air-buffer interface, compressing the film at πi = […] and then injecting the peptides into the subphase at a concentration of 0.2 µM (see Material and Methods). Subsequent peptide binding results typically in an increase of surface pressure. Thus, the peptide-monolayer interaction can be characterized by measurable kinetic properties, such as the initial velocity of surface pressure increase (Vi), which informs about the affinity of the peptide for the lipid-water interface, and the final increase of surface pressure (πmax), which can be related to the insertion ability of the peptide into the monolayer.
(§2) Monolayer experiments were performed on a computer-controlled Langmuir film balance (KSV 2000, three multi-compartment system, KSV Instrument Ltd., Finland) working in a symmetrical compression mode and enclosed in an opaque cabinet. The rectangular trough (V = 85 mL ±1 mL, S = 119.25 cm^2) was made of Teflon and the mobile barriers were made in Delrin. The surface pressure, π defined as γ0 – γ, where γ0 is the surface tension of the pure aqueous subphase and γ the surface tension exerted by phospholipids at the subphase surface, was measured by the Wilhelmy's method using a platinum plate with an accuracy of ±0.05 mN/m. The trough was filled with Hepes buffer (pH 7.4), used as subphase and thermostated with a water circulating bath (Lauda E100, LAUDA France, SARL). In all experiments, the subphase temperature was maintained at a constant value of 22.5±0.5°C.
Phospholipid monolayers were formed by deposition of 14 µl of spreading solutions at a clean air/buffer interface by means of a micropipette to reach a final amount of 14 nmol of phospholipids. After complete evaporation of the solvent (∼15 min), the monolayer was slowly compressed up to a defined lateral pressure (initial surface pressure πi) at a rate of 0.045 nm^2 molecule^−1 min^−1. The value of πi = 5 mN/m was chosen because it lies between the surface pressure set-off and surface pressures (e.g. 30 mN/m, which corresponds to a tightly packed film) where many peptides of the study will not insert. […]

Data set [2] is described as follows: Langmuir monolayer penetration assay, lipid mixture not singled out (Figure 5). Type of data set: physicochemical. As to conditions: Figure 5A; πi 5 mN/m, peptide 0.2 µM, Hepes pH 7.4, duplicate.
Text: as §1
Figure 5 Changes in surface pressure after peptide injection. Peptides were injected underneath POPC/DOPE or POPC/DOPE/CL monolayers at constant area. A. Final increase of surface pressure πmax (mN/m) obtained for the different peptides. The dashed line denotes the threshold (Δπ = 4.8 mN/m) for significant surface pressure variation as determined using BAX-α5S without lipids (see text). B. Initial velocity of surface pressure increase (Vi = Δπ/s).
as §2
Phospholipid monolayers were formed by deposition of 14 µl of spreading solutions at a clean air/buffer interface by means of a micropipette to reach a final amount of 14 nmol of phospholipids. […]

On to “WGRVVALFYFASKLVLKALSTK [BAX-α5S, short peptide of the first helix (α5) of the central hairpin of BAX]”, for which the “surface pressure increase (Δπ) with lipid monolayer” value in data set [1] (initial surface pressure 5 mN/m, peptide 0.2 µM in subphase, Hepes pH 7.4, 22.5°C, constant area) is on record as 32.1 mN/m. For the same sequence, the “πmax (plateau surface pressure after peptide injection)” value in data set [1] (πi = 5 mN/m, peptide injected underneath monolayer, compression-decompression experiment) was 32.1 mN/m. The “exclusion pressure (πex)” value in data set [1] (extrapolation of linear Δπ versus πi plot to Δπ = 0) is reported as 33 mN/m. The “final increase of surface pressure πmax (insertion), in words” value in data set [2] is reported as “highest increases in surface pressure”.
